A short description of assay [1]: Inhibition of Baker's yeast Alpha-glucosidase-1 using p-nitrophenyl-alpha-D-glucopyranoside as substrate preincubated for 10 mins prior substrate addition measured after 20 mins by spectrophotometry. Also on record: species or system Saccharomyces cerevisiae.
The target of assay [2] is Sucrase-isomaltase, intestinal (Rattus norvegicus) (UniProt P23739). In words: Inhibition of rat intestinal alpha-glucosidase sucrase using sucrose as substrate at 10 mg/mL preincubated for 10 mins prior substrate addition measured after 40 mins by spectrophotometry.
Sequence of Sucrase-isomaltase, intestinal (Rattus norvegicus) (P23739 1-1013 limits assumed): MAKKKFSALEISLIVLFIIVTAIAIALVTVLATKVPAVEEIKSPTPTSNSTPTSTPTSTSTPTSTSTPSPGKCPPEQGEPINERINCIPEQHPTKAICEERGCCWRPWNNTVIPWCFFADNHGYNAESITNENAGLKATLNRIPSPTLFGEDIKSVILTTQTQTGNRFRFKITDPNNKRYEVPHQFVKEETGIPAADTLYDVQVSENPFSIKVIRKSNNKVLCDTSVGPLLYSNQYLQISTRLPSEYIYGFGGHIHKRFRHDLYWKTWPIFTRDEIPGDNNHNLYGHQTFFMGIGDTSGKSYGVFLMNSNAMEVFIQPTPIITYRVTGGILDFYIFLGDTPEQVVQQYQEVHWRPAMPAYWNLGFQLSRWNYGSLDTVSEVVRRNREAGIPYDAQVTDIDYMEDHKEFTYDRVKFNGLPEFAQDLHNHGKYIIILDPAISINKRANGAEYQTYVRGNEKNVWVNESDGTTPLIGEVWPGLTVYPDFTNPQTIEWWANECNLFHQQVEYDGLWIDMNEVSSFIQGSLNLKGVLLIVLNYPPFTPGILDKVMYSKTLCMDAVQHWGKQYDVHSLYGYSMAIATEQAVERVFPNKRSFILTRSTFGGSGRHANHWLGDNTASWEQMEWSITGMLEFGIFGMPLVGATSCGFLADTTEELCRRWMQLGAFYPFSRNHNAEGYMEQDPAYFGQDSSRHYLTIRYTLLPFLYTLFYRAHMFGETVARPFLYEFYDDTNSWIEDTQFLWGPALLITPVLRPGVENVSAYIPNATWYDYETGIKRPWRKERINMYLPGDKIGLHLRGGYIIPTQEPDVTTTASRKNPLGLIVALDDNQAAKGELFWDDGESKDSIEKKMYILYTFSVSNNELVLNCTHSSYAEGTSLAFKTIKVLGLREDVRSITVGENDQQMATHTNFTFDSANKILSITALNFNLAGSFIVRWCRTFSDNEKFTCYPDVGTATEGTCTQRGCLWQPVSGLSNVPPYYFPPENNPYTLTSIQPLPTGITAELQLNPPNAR
Sequence of Sucrase-isomaltase, intestinal (Rattus norvegicus) (P23739 1014-1841 limits assumed): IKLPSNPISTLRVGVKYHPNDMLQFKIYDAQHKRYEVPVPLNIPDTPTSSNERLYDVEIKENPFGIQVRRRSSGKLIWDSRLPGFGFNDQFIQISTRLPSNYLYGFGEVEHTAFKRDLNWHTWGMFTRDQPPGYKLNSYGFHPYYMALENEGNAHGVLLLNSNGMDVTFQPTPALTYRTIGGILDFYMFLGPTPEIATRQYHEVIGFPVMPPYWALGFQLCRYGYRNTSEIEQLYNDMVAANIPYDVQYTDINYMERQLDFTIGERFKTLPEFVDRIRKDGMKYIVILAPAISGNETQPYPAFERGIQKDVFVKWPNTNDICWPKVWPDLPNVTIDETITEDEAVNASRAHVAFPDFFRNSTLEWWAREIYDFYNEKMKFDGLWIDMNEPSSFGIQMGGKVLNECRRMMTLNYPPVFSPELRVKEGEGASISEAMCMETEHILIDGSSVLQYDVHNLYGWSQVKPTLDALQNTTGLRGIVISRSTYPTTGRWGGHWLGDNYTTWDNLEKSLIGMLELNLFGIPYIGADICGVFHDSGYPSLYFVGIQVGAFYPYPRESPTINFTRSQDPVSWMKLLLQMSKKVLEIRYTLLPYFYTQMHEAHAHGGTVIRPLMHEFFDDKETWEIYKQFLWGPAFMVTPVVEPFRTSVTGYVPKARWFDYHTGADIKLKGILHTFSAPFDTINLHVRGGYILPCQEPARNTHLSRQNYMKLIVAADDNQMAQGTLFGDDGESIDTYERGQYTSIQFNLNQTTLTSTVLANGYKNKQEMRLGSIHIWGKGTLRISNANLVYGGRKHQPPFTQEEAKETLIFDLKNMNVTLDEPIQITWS
Assay [3] has as its target Lysosomal alpha-glucosidase (Rattus norvegicus) (UniProt Q6P7A9). Kind of assay: Inhibition of rat intestinal alpha-glucosidase maltase using maltose as substrate at 10 mg/mL preincubated for 10 mins prior substrate addition measured after 40 mins by spectrophotometry.
Assay [4] deals with Saccharomyces cerevisiae. Kind of assay: Ratio of acarbose IC50 to compound IC50 for Baker's yeast Alpha-glucosidase-1.
For assay [5], the system named is Saccharomyces cerevisiae. In words: Inhibition of Baker's yeast Alpha-glucosidase-1 using p-nitrophenyl-alpha-D-glucopyranoside as substrate at 10 mg/mL preincubated for 10 mins prior substrate addition measured after 20 mins by spectrophotometry.
The target in a further assay is T1, Beta-galactosidase (Homo sapiens, UniProt P16278).
T1 sequence (P16278 whole entry): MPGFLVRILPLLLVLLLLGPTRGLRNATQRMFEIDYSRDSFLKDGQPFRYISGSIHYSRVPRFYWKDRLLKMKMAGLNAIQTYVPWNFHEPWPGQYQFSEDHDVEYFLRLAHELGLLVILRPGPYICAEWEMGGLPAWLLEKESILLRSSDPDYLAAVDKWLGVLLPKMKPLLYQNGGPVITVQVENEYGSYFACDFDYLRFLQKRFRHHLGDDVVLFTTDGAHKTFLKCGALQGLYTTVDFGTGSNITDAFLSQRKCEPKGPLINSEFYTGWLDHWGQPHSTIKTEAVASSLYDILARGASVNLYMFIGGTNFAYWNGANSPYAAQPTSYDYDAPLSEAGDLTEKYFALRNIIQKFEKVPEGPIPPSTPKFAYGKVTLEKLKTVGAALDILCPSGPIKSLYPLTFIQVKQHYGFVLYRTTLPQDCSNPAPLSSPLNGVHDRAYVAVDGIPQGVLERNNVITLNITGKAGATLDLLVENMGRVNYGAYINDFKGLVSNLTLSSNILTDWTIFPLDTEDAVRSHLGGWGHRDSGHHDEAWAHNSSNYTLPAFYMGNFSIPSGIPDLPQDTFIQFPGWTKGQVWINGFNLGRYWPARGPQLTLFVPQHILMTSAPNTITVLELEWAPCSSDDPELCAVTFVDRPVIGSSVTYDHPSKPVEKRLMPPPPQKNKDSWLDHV
In words: Inhibition of beta-galactosidase.

The structures appear in SMILES notation.

Sequence of Lysosomal alpha-glucosidase (Rattus norvegicus) (Q6P7A9 whole entry): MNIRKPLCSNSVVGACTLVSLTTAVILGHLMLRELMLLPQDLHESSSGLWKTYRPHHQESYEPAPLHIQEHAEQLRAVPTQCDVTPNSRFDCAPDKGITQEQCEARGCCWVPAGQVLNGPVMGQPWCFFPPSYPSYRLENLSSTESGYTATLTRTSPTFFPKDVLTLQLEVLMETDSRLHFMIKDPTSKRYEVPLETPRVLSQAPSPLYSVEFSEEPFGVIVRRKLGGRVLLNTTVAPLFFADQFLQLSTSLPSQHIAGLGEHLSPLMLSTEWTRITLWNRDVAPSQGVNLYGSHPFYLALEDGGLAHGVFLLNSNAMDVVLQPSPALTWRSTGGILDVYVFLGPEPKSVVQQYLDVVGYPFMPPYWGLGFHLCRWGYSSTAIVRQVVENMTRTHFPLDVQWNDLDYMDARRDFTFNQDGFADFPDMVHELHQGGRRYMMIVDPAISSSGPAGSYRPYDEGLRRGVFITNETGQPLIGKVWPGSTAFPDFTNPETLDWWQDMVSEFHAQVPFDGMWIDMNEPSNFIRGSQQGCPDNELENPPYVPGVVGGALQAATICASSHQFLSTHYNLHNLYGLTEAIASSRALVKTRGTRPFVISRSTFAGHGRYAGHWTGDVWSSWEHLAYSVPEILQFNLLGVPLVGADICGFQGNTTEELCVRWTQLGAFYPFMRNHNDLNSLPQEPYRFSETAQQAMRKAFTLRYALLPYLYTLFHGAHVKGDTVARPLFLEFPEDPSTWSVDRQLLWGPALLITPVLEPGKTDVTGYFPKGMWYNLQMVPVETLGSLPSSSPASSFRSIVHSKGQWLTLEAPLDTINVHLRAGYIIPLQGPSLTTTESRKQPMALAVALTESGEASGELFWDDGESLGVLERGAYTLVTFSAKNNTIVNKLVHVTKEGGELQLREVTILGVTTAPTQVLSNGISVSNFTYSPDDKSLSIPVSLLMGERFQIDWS

Consider `C[C@H]1O[C@H](O[C@H]2[C@H](O)[C@@H](O)[C@@H](O[C@H]3[C@H](O)[C@@H](O)C(O)O[C@@H]3CO)O[C@@H]2CO)[C@H](O)[C@@H](O)[C@@H]1N[C@H]1C=C(CO)[C@@H](O)[C@H](O)[C@H]1O` (stereo not given in full) [ACARBOSE], for which half-maximal inhibition in assay [1] (IC50) required 404 µM.
On to `O[C@@H]1[C@@H](O)[C@@H](O)C=C[C@H]1O` [listing 1 of 2 here], for which the inhibition in assay [2] and in assay [3] was below 30% each time. Also, in the assay with Saccharomyces cerevisiae [4], the Ratio IC50 was determined as 5.
In turn, `O[C@@H]1[C@@H](O)[C@@H](O)C=C[C@H]1O` [listing 2 of 2 here] returned an IC50 in assay [1] of 86.1 µM.
Regarding `OC1[C@@H](O)[C@H](O)C[C@@H](O)[C@@H]1O` (stereo not given in full), the inhibition (in assay [2]; in assay [3]; in the assay on Saccharomyces cerevisiae [5]) was below 30% in each case.
Regarding `O[C@@H]1[C@@H](O)[C@@H](O)C=C[C@H]1O` (relative stereo), the IC50 at Beta-galactosidase was found to be 600 µM.
In the case of `O[C@H]1[C@@H](O)[C@@H](O)[C@@H](O)[C@@H](O)[C@@H]1O`, the inhibition in assay [2] and in assay [3] was below 30% throughout. In addition, half-maximal inhibition in assay [1] (IC50) was put at 476 µM.
Regarding `O[C@H]1[C@H](O)[C@H](O)[C@@H](O)[C@H](O)[C@H]1O`, the inhibition in assay [2] and in assay [3] was below 30% in each case. Besides, the IC50 in assay [1] came out at 1260 µM.

For orientation: IC50 means the midpoint of a concentration-inhibition curve. Low readings indicate greater potency, high ones weaker potency. For orientation: inhibition means the relative decrease from the control value, in per cent. A higher inhibition goes with a response far below the control.

For the origin of these results see ChEMBL document CHEMBL1949549, “Concise synthesis of (+)-conduritol F and inositol analogues from naturally available (+)-proto-quercitol and their glucosidase inhibitory activity” (Bioorg Med Chem Lett, 2012).
